Test results: US20240190880A1 (THE REGENTS OF THE UNIVERSITY OF MICHIGAN, priority 2021, published 2024)

Each compound was assayed against T1, ER (Homo sapiens, UniProt P03372) (assay: ER degradation activity, in-cell western blot analysis in T47D cells). Conditions: 16 hours, Table A does not say which cell line (T47D or MCF7), read-out: Potency (DC50).
T1 construct: host or cells: T47D and MCF7 human breast cancer cells
T1 sequence (P03372 1-595): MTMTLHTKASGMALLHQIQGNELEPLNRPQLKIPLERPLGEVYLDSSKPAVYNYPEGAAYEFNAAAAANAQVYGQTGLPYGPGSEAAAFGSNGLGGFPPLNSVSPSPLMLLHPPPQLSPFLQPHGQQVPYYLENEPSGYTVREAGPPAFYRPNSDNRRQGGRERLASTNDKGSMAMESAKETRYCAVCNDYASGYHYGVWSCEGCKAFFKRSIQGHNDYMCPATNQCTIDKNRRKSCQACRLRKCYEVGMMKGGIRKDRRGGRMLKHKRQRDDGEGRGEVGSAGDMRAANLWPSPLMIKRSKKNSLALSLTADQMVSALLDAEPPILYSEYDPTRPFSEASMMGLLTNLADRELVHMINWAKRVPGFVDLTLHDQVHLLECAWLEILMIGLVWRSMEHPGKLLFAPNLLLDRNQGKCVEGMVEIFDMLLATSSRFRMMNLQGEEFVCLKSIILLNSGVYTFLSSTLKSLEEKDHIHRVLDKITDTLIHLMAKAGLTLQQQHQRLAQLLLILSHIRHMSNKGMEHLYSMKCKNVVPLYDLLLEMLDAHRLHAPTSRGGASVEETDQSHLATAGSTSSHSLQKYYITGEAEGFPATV
Format: cell-based
Summary of the method: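 T47D cells cultured in DMEM with 10% FBS, treated with compounds (final 0.5% DMSO) for 16 h. ER level measured by in-cell western with anti-rabbit-680/anti-mouse-800 near-infrared detection. Relative ER percentage calculated against untreated and DMSO-treated wells set as 100%.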

Row | SMILES | DC50
1 | O=C1CCC(N2C(=O)c3cc4c(cc3C2=O)CN(C(=O)CN2CCC3(CC2)CCN(c2ccc(C(=C(CCCl)c5ccccc5)c5ccc(O)cc5)cc2)CC3)C4)C(=O)N1 (stereo not shown) [E 195, 6-(2-(9-(4-(4-chloro-1-(4-hydroxyphenyl)-2-phenylbut-1-en-1-yl)phenyl)-3,9-diazaspiro[5.5]undecan-3-yl)acetyl)-2-(2,6-dioxopiperidin-3-yl)-6,7-dihydropyrrolo[3,4-f]isoindole-1,3(2H,5H)-dione] | 10 to 100 nM
2 | C[C@@H]1Cc2cc(O)ccc2[C@@H](c2c(F)cc(N3CC4(CCN(CC(=O)N5Cc6cc7c(cc6C5)C(=O)N(C5CCC(=O)NC5=O)C7)CC4)C3)cc2F)N1CC(C)(F)F (stereo partly drawn) [E 26, 3-(6-(2-(2-(4-((1S,3R)-2-(2,2-difluoropropyl)-6-hydroxy-3-methyl-1,2,3,4-tetrahydroisoquinolin-1-yl)-3,5-difluorophenyl)-2,7-diazaspiro[3.5]nonan-7-yl)acetyl)-1-oxo-3,5,6,7-tetrahydropyrrolo[3,4-f]isoindol-2(1H)-yl)piperidine-2,6-dione] | > 100 nM
3 | C[C@@H]1Cc2c([nH]c3ccccc23)[C@@H](c2c(F)cc(N3CCC(CC(=O)N4Cc5cc6c(cc5C4)C(=O)N(C4CCC(=O)NC4=O)C6)CC3)cc2F)N1CC(F)F (stereo partly drawn) [E 104, 3-(6-(2-(1-(4-((1R,3R)-2-(2,2-difluoroethyl)-3-methyl-2,3,4,9-tetrahydro-1H-pyrido[3,4-b]indol-1-yl)-3,5-difluorophenyl)piperidin-4-yl)acetyl)-1-oxo-3,5,6,7-tetrahydropyrrolo[3,4-f]isoindol-2(1H)-yl)piperidine-2,6-dione] | > 100 nM
4 | C[C@@H]1Cc2c([nH]c3ccccc23)[C@@H](c2c(F)cc(N3CCC(N4CC(C(=O)N5Cc6cc7c(cc6C5)C(=O)N(C5CCC(=O)NC5=O)C7=O)C4)CC3)cc2F)N1CC(F)F (stereo partly drawn) [E 119, 6-(1-(1-(4-((1R,3R)-2-(2,2-difluoroethyl)-3-methyl-2,3,4,9-tetrahydro-1H-pyrido[3,4-b]indol-1-yl)-3,5-difluorophenyl)piperidin-4-yl)azetidine-3-carbonyl)-2-(2,6-dioxopiperidin-3-yl)-6,7-dihydropyrrolo[3,4-f]isoindole-1,3(2H,5H)-dione] | > 100 nM
5 | C[C@@H]1Cc2cc(O)ccc2[C@@H](c2c(F)cc(N3CCC(CN4CCC(N5Cc6cc7c(cc6C5)C(=O)N(C5CCC(=O)NC5=O)C7=O)CC4)CC3)cc2F)N1CC(F)F (stereo partly drawn) [E 270, 6-(1-((1-(4-((1S,3R)-2-(2,2-difluoroethyl)-6-hydroxy-3-methyl-1,2,3,4-tetrahydroisoquinolin-1-yl)-3,5-difluorophenyl)piperidin-4-yl)methyl)piperidin-4-yl)-2-(2,6-dioxopiperidin-3-yl)-6,7-dihydropyrrolo[3,4-f]isoindole-1,3(2H,5H)-dione] | > 100 nM
6 | C[C@@H]1Cc2c([nH]c3ccccc23)[C@@H](c2c(F)cc(N3CCC(C(=O)N4CC(CN5Cc6cc7c(cc6C5)C(=O)N(C5CCC(=O)NC5=O)C7=O)C4)CC3)cc2F)N1CC(F)F (stereo partly drawn) [E 234, 6-((1-(1-(4-((1R,3R)-2-(2,2-difluoroethyl)-3-methyl-2,3,4,9-tetrahydro-1H-pyrido[3,4-b]indol-1-yl)-3,5-difluorophenyl)piperidine-4-carbonyl)azetidin-3-yl)methyl)-2-(2,6-dioxopiperidin-3-yl)-6,7-dihydropyrrolo[3,4-f]isoindole-1,3(2H,5H)-dione] | 10 to 100 nM
7 | C[C@@H]1Cc2cc(O)ccc2[C@@H](c2c(F)cc(N3CC4(CN(C(=O)CN5Cc6cc7c(cc6C5)C(=O)N(C5CCC(=O)NC5=O)C7=O)C4)C3)cc2F)N1CC(F)F (stereo partly drawn) [E 42, 6-(2-(6-(4-((1S,3R)-2-(2,2-difluoroethyl)-6-hydroxy-3-methyl-1,2,3,4-tetrahydroisoquinolin-1-yl)-3,5-difluorophenyl)-2,6-diazaspiro[3.3]heptan-2-yl)-2-oxoethyl)-2-(2,6-dioxopiperidin-3-yl)-6,7-dihydropyrrolo[3,4-f]isoindole-1,3(2H,5H)-dione] | < 10 nM
8 | O=C1CCC(N2C(=O)c3cc4c(cc3C2=O)CN(CCN2CCC3(CC2)CN(c2ccc([C@@H]5c6ccc(O)cc6CC[C@@H]5c5ccccc5)cc2)C3)C4)C(=O)N1 (mixture of isomers) [E 266, rac-2-(2,6-dioxopiperidin-3-yl)-6-(2-(2-(4-((1R,2S)-6-hydroxy-2-phenyl-1,2,3,4-tetrahydronaphthalen-1-yl)phenyl)-2,7-diazaspiro[3.5]nonan-7-yl)ethyl)-6,7-dihydropyrrolo[3,4-f]isoindole-1,3(2H,5H)-dione] | 10 to 100 nM
9 | C[C@@H]1Cc2c([nH]c3ccccc23)[C@@H](c2c(F)cc(N3CCC4(CCN(CC(=O)N5Cc6cc7c(cc6C5)C(=O)N(C5CCC(=O)NC5=O)C7)CC4)C3)cc2F)N1CC(F)F (stereo partly drawn) [E 108, 3-(6-(2-(2-(4-((1R,3R)-2-(2,2-difluoroethyl)-3-methyl-2,3,4,9-tetrahydro-1H-pyrido[3,4-b]indol-1-yl)-3,5-difluorophenyl)-2,8-diazaspiro[4.5]decan-8-yl)acetyl)-1-oxo-3,5,6,7-tetrahydropyrrolo[3,4-f]isoindol-2(1H)-yl)piperidine-2,6-dione] | < 10 nM

Results, then the compound that gave them:

Row | DC50 | SMILES
10 | > 100 nM | C[C@@H]1Cc2cc(O)ccc2[C@@H](c2ccc(N3CCC(C(=O)N4CC(CN5Cc6cc7c(cc6C5)C(=O)N(C5CCC(=O)NC5=O)C7=O)C4)CC3)cc2F)N1CC(F)F (stereo partly drawn) [E 349, 6-((1-(1-(4-((1S,3R)-2-(2,2-difluoroethyl)-6-hydroxy-3-methyl-1,2,3,4-tetrahydroisoquinolin-1-yl)-3-fluorophenyl)piperidine-4-carbonyl)azetidin-3-yl)methyl)-2-(2,6-dioxopiperidin-3-yl)-6,7-dihydropyrrolo[3,4-f]isoindole-1,3(2H,5H)-dione]
11 | < 10 nM | C[C@@H]1Cc2cc(O)ccc2C(c2ccc(N3CCC(C(=O)N4CCC(N5Cc6cc7c(cc6C5)C(=O)N(C5CCC(=O)NC5=O)C7=O)CC4)CC3)cc2)N1CC(F)F (stereo partly drawn) [E 321, 6-(1-(1-(4-((3R)-2-(2,2-difluoroethyl)-6-hydroxy-3-methyl-1,2,3,4-tetrahydroisoquinolin-1-yl)phenyl)piperidine-4-carbonyl)piperidin-4-yl)-2-(2,6-dioxopiperidin-3-yl)-6,7-dihydropyrrolo[3,4-f]isoindole-1,3(2H,5H)-dione]
12 | > 100 nM | C[C@@H]1Cc2c([nH]c3ccccc23)[C@@H](c2c(F)cc(C(=O)N3CCC4(CC3)CC(CN3Cc5cc6c(cc5C3)C(=O)N(C3CCC(=O)NC3=O)C6=O)C4)cc2F)N1CC(F)F (stereo partly drawn) [E 369, 6-((7-(4-((1R,3R)-2-(2,2-difluoroethyl)-3-methyl-2,3,4,9-tetrahydro-1H-pyrido[3,4-b]indol-1-yl)-3,5-difluorobenzoyl)-7-azaspiro[3.5]nonan-2-yl)methyl)-2-(2,6-dioxopiperidin-3-yl)-6,7-dihydropyrrolo[3,4-f]isoindole-1,3(2H,5H)-dione]
13 | 10 to 100 nM | C[C@@H]1Cc2c([nH]c3ccccc23)[C@@H](c2ccc(C3CCC(C(=O)N4CCC(N5Cc6cc7c(cc6C5)C(=O)N(C5CCC(=O)NC5=O)C7=O)CC4)CC3)cc2F)N1CC(F)F (stereo partly drawn) [E 312, 6-(1-(4-(4-((1R,3R)-2-(2,2-difluoroethyl)-3-methyl-2,3,4,9-tetrahydro-1H-pyrido[3,4-b]indol-1-yl)-3-fluorophenyl)cyclohexane-1-carbonyl)piperidin-4-yl)-2-(2,6-dioxopiperidin-3-yl)-6,7-dihydropyrrolo[3,4-f]isoindole-1,3(2H,5H)-dione]
14 | > 100 nM | C[C@@H]1Cc2c([nH]c3ccccc23)[C@@H](c2ccc(C3=CCC(C(=O)N4CCC(N5Cc6cc7c(cc6C5)C(=O)N(C5CCC(=O)NC5=O)C7=O)CC4)CC3)nc2)N1CC(F)F (stereo partly drawn) [E 314, 6-(1-(4-(5-((1R,3R)-2-(2,2-difluoroethyl)-3-methyl-2,3,4,9-tetrahydro-1H-pyrido[3,4-b]indol-1-yl)pyridin-2-yl)cyclohex-3-ene-1-carbonyl)piperidin-4-yl)-2-(2,6-dioxopiperidin-3-yl)-6,7-dihydropyrrolo[3,4-f]isoindole-1,3(2H,5H)-dione]

Same assay, conditions: compounds 16 hours, Table A does not say whether T47D or MCF7, read-out: Potency (DC50)

Row | DC50 | SMILES
15 | > 100 nM | COc1cc(C2CCC(C(=O)N3CCC(N4Cc5cc6c(cc5C4)C(=O)N(C4CCC(=O)NC4=O)C6=O)CC3)CC2)cnc1[C@@H]1c2[nH]c3ccccc3c2C[C@@H](C)N1CC(F)F (stereo partly drawn) [E 405, 6-(1-(4-(6-((1S,3R)-2-(2,2-difluoroethyl)-3-methyl-2,3,4,9-tetrahydro-1H-pyrido[3,4-b]indol-1-yl)-5-methoxypyridin-3-yl)cyclohexane-1-carbonyl)piperidin-4-yl)-2-(2,6-dioxopiperidin-3-yl)-6,7-dihydropyrrolo[3,4-f]isoindole-1,3(2H,5H)-dione]
16 | 10 to 100 nM | C[C@@H]1Cc2c([nH]c3ccccc23)[C@@H](c2cnc(N3CCC4(CC3)CC(CN3Cc5cc6c(cc5C3)C(=O)N(C3CCC(=O)NC3=O)C6=O)C4)nc2)N1CC(C)(C)F (stereo partly drawn) [E 473, 2-(2,6-dioxopiperidin-3-yl)-6-((7-(5-((1R,3R)-2-(2-fluoro-2-methylpropyl)-3-methyl-2,3,4,9-tetrahydro-1H-pyrido[3,4-b]indol-1-yl)pyrimidin-2-yl)-7-azaspiro[3.5]nonan-2-yl)methyl)-6,7-dihydropyrrolo[3,4-f]isoindole-1,3(2H,5H)-dione]
